From patent US11672795B2, “Compositions and methods for treating pulmonary vascular disease” (UNIVERSITY OF PITTSBURGH-OF THE COMMONWEALTH SYSTEM OF …, priority 2016, dated 2023)
“Also recorded” adds a separate entry of the source.

Columns and labels:
Assay type in all cases: in vivo, rat
[1] = tested on: monocrotaline-exposed rats; assay: Atomic force microscopy of pulmonary arteriolar stiffness in monocrotaline-exposed rats
Description: Rat lungs were inflated with 0.025 g of OCT by g of body weight, frozen on liquid nitrogen vapor and store at −80° C. Rat lung slices (10 μm thickness) were cut out from their glass slide and the fragment of glass containing the sample was glued on the bottom of a 50 mm dish (Willco Glass Bottom Dish). Before measurements the sample was first rinsed and after covered with 4 ml of PBS 1×. The mechanical properties of the samples were studied using a BioScope Catalyst atomic force microscope (Bruker) coupled with and optical microscope (Leica DMI6000B) that enables, by phase contrast, to pinpoint the areas of interest. For each sample, from five to a maximum of 9 vessels (<100 μm diameter) were analyzed using the “Point and Shoot” method, collecting from 35 to 80 force-distance curves at just as many discrete points. The experiments of microindentation were performed in PBS using a probe with a Borosilicate Glass spherical tip (5 μm of diameter) and a cantilever with a nominal spring constant of 0.06 N/m (Novascan). Indentations were carried out using a velocity of 2 μm/s, in relative trigger mode and by setting the trigger threshold to 2 nN. The apparent Young's modulus was calculated using the NanoScope Analysis 1.50 software (Bruker), fitting the force curves to the Hertz spherical indentation model and using a Poisson's ratio of 0.4. To avoid large indentation, a minimum and a maximum Force Fit Boundary of 5% and 25% respectively of the whole force curve was taken into account for the fit.

[2] = tested on: monocrotaline-exposed rats; assay: Histology and immunofluorescence of lung sections of monocrotaline-exposed rats; settings: for pulmonary arteriolar muscularization / pulmonary arteriolar remodeling / Ki67/PCNA positive cells in CD31/vWF+ endothelial compartment / Ki67/PCNA positive cells in α-SMA+ medial (smooth muscle) compartment: daily i.p. 10 mg/kg; for pulmonary arteriolar muscularization / pulmonary arteriolar remodeling: C968 from day 2, CB839 from day 7; for CD31/PCNA and α-SMA/PCNA double-positive cells (vascular endothelial and smooth muscle proliferation) / GLS1 vascular intensity / YAP1+ cells / vessel thickness and muscularization (vascular remodeling): daily BAPN or daily i.p. verteporfin 25 mg/kg
Description: Lung sections (5 μm) were deparaffinized and high temperature antigen retrieval was performed, followed by blocking in TBS/BSA 5%, 10% donkey serum and exposure to primary antibody and biotinylated secondary antibody (Vectastain ABC kit, Vector Labs) for immunohistochemistry or Alexa 488, 568 and 647-conjugated secondary antibodies (Thermo Fisher Scientific) for immunofluorescence. A primary antibody against YAP1 (#4912; 1/200 or sc101199; 1/50) were obtained from Cell Signaling and Santa Cruz Biotechnology respectively. Primary antibodies against, GLS1 (ab156876; 1/100), PC (ab115579; 1/100), LDHA (ab47010; 1/200) and α-SMA (ab32575; 1/1000) were purchased from Abcam. A primary antibody against CD31 (sc-1506; 1/100), was purchased from Santa Cruz Biotechnology. A primary antibody against PCNA (13-3900, 1/100) was purchased from Thermo Fisher Scientific. In most cases, color development was achieved by adding streptavidin-biotinylated alkaline phosphatase complex (Vector Labs) followed by Vector Red alkaline phosphatase substrate solution (Vector Labs). Levamisole was added to block endogenous alkaline phosphatase activity (Vector Labs). Pictures were obtained using an Olympus Bx51 microscope or ZEISS LSM Exciter confocal microscope. Small pulmonary vessels (<100 µm diameter) present in a given tissue section (>10 vessels/section) that were not associated with bronchial airways were selected for analysis (N>5 animals/group). Intensity of staining was quantified using ImageJ software (NIH). Degree of pulmonary arteriolar muscularization was assessed in paraffin-embedded lung sections stained for α-SMA by calculation of the proportion of fully and partially muscularized peripheral (<100 μm diameter) pulmonary arterioles to total peripheral pulmonary arterioles, as previously described (12). All measurements were performed blinded to condition.
(§1) To induce PH, male Sprague-Dawley rats (10-14 week old) were injected intraperitoneally with 60 mg/kg monocrotaline (Sigma-Aldrich). After two days, rats underwent intraperitoneal injection daily with 25 mg/kg of verteporfin (Active Biochemicals Company, Ltd) solubilized in 5% dimethyl sulfoxide (DMSO, Sigma-Aldrich). Two days after the last injection on day 21 post-monocrotaline injection, right heart catheterization was performed followed by harvest of lung tissue and CD31+ cells for RNA or protein extraction, paraffin embedding, or cryopreservation with OCT (Sigma-Aldrich), as we described (2).
(§2) To induce PH, male Sprague-Dawley rats (10-14 week old) were injected intraperitoneally with 60 mg/kg monocrotaline (Sigma-Aldrich). After two days, serial intraperitoneal injections were given daily of C968 (10 mg/kg, Sigma-Aldrich), and after seven days post-monocrotaline injection, serial intraperitoneal injections were given daily of CB839 (10 mg/kg, Selleck Chemicals). Two days after the last injection on day 21 post-monocrotaline injection, right heart catheterization was performed followed by harvest of lung tissue and CD31+ cells for RNA or protein extraction, paraffin embedding, or cryopreservation with OCT (Sigma-Aldrich), as we described (2).

[3] = tested on: monocrotaline-exposed rats; assay: Right heart catheterization and right ventricular weight (RVSP, Fulton index) in monocrotaline-exposed rats; settings: for right ventricular remodeling (Fulton index, RV/LV+S) / right ventricular systolic pressure (RVSP): daily i.p. 10 mg/kg, C968 from day 2, CB839 from day 7; for hemodynamic and histologic indices of PH: BAPN or verteporfin alone; for PAH severity as quantified by RVSP: daily BAPN or daily i.p. verteporfin 25 mg/kg
Description: Monocrotaline-treated rats: As we previously described (7, 8), male Sprague-Dawley rats (10-14 week old) were injected with 60 mg/kg monocrotaline at time 0; at 0-4 weeks post-exposure, right heart catheterization was performed followed by harvest of lung tissue for RNA extraction or paraffin embedding, as described below (section: Tissue harvest).
After physiological measurements by direct right ventricular puncture, the pulmonary vessels were gently flushed with 1 cc of saline to remove the majority of blood cells, prior to harvesting cardiopulmonary tissue. The heart was removed, followed by dissection and weighing of the right ventricle (RV) and of the left ventricle+septum (LV+S). Organs were then harvested for histological preparation or flash frozen in liquid N2 for subsequent homogenization and extraction of RNA and/or protein. To further process lung tissue specifically, prior to excision, lungs were flushed with PBS at constant low pressure (approximately 10 mmHg) via right ventricular cannulation, followed by tracheal inflation of the left lung with 10% neutral-buffered formalin (Sigma-Aldrich) at a pressure of approximately 20 cm H2O. After excision and 16 hours of fixation in 10% neutral-buffered formalin at 25° C., lung tissues were paraffin embedded via an ethanol-xylene dehydration series, before being sliced into 5 μm sections (Hypercenter XP System and Embedding Center, Shandon).
as §1, §2
as §2, with “Finally, to investigate whether glutaminolysis itself is essential for promoting pulmonary vascular proliferation in PH, two separate pharmacologic inhibitors of GLS1 (C968 and CB-839) were administered in monocrotaline-exposed rats using either a disease prevention (FIG. 5A) or disease reversal (FIG. 5B) dosing protocol. To” for “To”, “C968 or CB-839” for “C968”, “C968 or CB-839” for “CB839”, “as” for “as we”, “previously (Bertero T, et al. Cell Reports. 2015; 13(5):1016-32).” for “(2).”

[4] = Left ventricular function and systemic blood pressure in treated monocrotaline-exposed rats; settings: for adverse effects on left ventricular cardiac function: daily BAPN or daily i.p. verteporfin 25 mg/kg
[5] = C968 from day 2, CB839 from day 7, 10 mg/kg
[6] = C968 from day 2, CB839 from day 7, listed as CB-839, 10 mg/kg
[7] = daily i.p. 10 mg/kg C968 or CB-839, data not shown
[8] = daily BAPN or daily i.p. verteporfin 25 mg/kg

Structure (SMILES) | pulmonary arteriolar muscularization [2] | pulmonary arteriolar remodeling [2] | Ki67/PCNA positive cells in CD31/vWF+ endothelial compartment [2, 5] | Ki67/PCNA positive cells in α-SMA+ medial (smooth muscle) compartment [2, 5] | right ventricular remodeling (Fulton index, RV/LV+S) [3] | right ventricular systolic pressure (RVSP) [3] | adverse effects on left ventricular function [4, 7] | adverse effects on systemic blood pressure [4, 7] | pulmonary arteriolar (<100 μm diameter) stiffness, atomic force microscopy [1, 8] | CD31/PCNA and α-SMA/PCNA double-positive cells (vascular endothelial and smooth muscle proliferation) [2] | GLS1 vascular intensity [2] | YAP1+ cells [2] | vessel thickness and muscularization (vascular remodeling) [2] | hemodynamic and histologic indices of PH [3] | PAH severity as quantified by RVSP [3] | adverse effects on left ventricular cardiac function ([4]; data not shown) | further results
O=C(Cc1cccc(OC(F)(F)F)c1)Nc1ccc(CCCCc2nnc(NC(=O)Cc3ccccn3)s2)nn1 [CB839] | significantly decreased | significantly decreased | reduced | reduced | significantly decreased | significantly decreased | without adverse effects | without adverse effects | – | – | – | – | – | – | – | – | pulmonary arteriolar (<100 μm diameter) stiffness, atomic force microscopy ([1]; daily CB839 vs vehicle): decreased; Ki67/PCNA positive cells in CD31/vWF+ endothelial compartment [2, 6]: decreased; Ki67/PCNA positive cells in α-SMA+ medial (smooth muscle) compartment [2, 6]: decreased
N#CCCN [BAPN, β-aminoproprionitrile] | – | – | – | – | – | – | – | – | decreased | decreased | decreased | decreased | decreased; also recorded: ameliorated | improvement | in a lower extent BAPN ameliorated | without adverse effects | –
C=Cc1c(C)c2cc3nc(cc4[nH]c(cc5nc(cc1[nH]2)C(C)=C5CCC(=O)O)c(CCC(=O)OC)c4C)[C@@]1(C)C3=CC=C(C(=O)OC)[C@H]1C(=O)OC [Verteporfin, 3-[(23S,24R)-14-ethenyl-5-(3-methoxy-3-oxopropyl)-22,23-bis(methoxycarbonyl)-4,10,15,24-tetramethyl-25,26,27,28-tetraazahexacyclo[16.6.1.1^3,6.1^8,11.1^13,16.0^19,24]octacosa-1,3,5,7,9,11(27),12,14,16,18(25),19,21-dodecaen-9-yl]propanoic acid] | – | – | – | – | – | – | – | – | decreased | decreased | decreased | decreased | decreased | robust improvement | ameliorated | without adverse effects | CD31/PCNA and α-SMA/PCNA double-positive cells (vascular endothelial and smooth muscle proliferation) ([2]; listed as verteporfin): improved; vessel thickness and muscularization (vascular remodeling) ([2]; listed as verteporfin): reductions; PAH severity as quantified by RVSP ([3]; listed as verteporfin): reductions; right ventricular remodelling (Fulton index) ([3]; daily i.p. verteporfin 25 mg/kg): reductions; adverse effects on systemic blood pressure ([4]; daily i.p. verteporfin 25 mg/kg, data not shown): without adverse effects
CN(C)c1ccc(C2Nc3ccc4ccccc4c3C3=C2C(=O)CC(C)(C)C3)cc1Br (centres unmarked) [C968, 5-(3-Bromo-4-(dimethylamino)phenyl)-2,2-dimethyl-2,3,5,6-tetrahydrobenzo[a]phenanthridin-4(1H)-one] | significantly decreased | significantly decreased | reduced; also recorded: decreased | reduced; also recorded: decreased | significantly decreased | significantly decreased | without adverse effects | without adverse effects | – | – | – | – | – | – | – | – | PAH severity, as quantified by vascular remodeling, arteriolar muscularization, RVSP and right ventricular hypertrophy ([3]; prevention experiment (C968) or reversal study): ameliorated
